The species entered for experiment [1] is Oryctolagus cuniculus. Conditions: at 2 mM.
Description: Inhibition of UBR protein in rabbit reticulocyte lysates assessed as inhibition of Tyr-nsP4 substrate degradation at 2 mM by immunoblotting analysis in presence of bestatin
The species entered for experiment [2] is Oryctolagus cuniculus. Conditions: at 2 mM. This is another data set of the same source.
Description: Inhibition of UBR protein in rabbit reticulocyte lysates assessed as inhibition of Tyr-nsP4 substrate degradation at 2 mM
Experiment [3] can be described thus: Inhibition of UBR protein in rabbit reticulocyte lysates assessed as inhibition of Arg-nsP4 substrate degradation by in vitro synthesis/degradation assay. Details: species or system Oryctolagus cuniculus.
Experiment [4] can be described thus: Inhibition of UBR protein in rabbit reticulocyte lysates assessed as inhibition of Tyr-nsP4 substrate degradation by in vitro synthesis/degradation assay. Further details: species or system Oryctolagus cuniculus.
The species named for experiment [5] is Oryctolagus cuniculus.
Description: Inhibition of UBR protein in rabbit reticulocyte lysates assessed as inhibition of Tyr-nsP4 substrate degradation measuring substrate half life at 2 mM
The species named for experiment [6] is Oryctolagus cuniculus. As to the kind of experiment: Inhibition of UBR protein in rabbit reticulocyte lysates assessed as inhibition of Arg-nsP4 substrate degradation at 1 mM after 30 mins by Western blot analysis. For orientation: A western blot detects proteins with antibodies after separation by electrophoresis.
Experiment [7] is filed under the species Oryctolagus cuniculus. As to the kind of experiment: Inhibition of UBR protein in rabbit reticulocyte lysates assessed as inhibition of RGS4 substrate degradation at 2 mM after 30 to 60 mins in presence of bestatin.
For experiment [8], the species on record is Oryctolagus cuniculus. As to the kind of experiment: Inhibition of UBR protein in rabbit reticulocyte lysates assessed as inhibition of Arg-nsP4 substrate degradation at 2 mM after 30 mins by Western blot analysis.
The species entered for experiment [9] is Oryctolagus cuniculus. As to the kind of experiment: Inhibition of UBR protein in rabbit reticulocyte lysates assessed as inhibition of Arg-nsP4 substrate degradation at 2 mM by SDS-PAGE in presence of bestatin.
The species named for experiment [10] is Oryctolagus cuniculus. As to the kind of experiment: Inhibition of UBR protein in rabbit reticulocyte lysates assessed as inhibition of Arg-nsP4 substrate degradation at 6 mM by SDS-PAGE in presence of bestatin.

pIC50: −log10 of the molar value. Active and inactive are the calls of the source. No cut-off for these calls is given here.

In the case of `N[C@@H](Cc1ccccc1)C(=O)NCCCP(=O)(O)O`, the inhibition result in experiment [1] and in experiment [2] was “Active” throughout.
Broadly, the pIC50 is the negative decadic logarithm of the IC50, by convention in mol/L. `CC(N)Cc1ccc(Cl)cc1` (configuration not stated): the results for the negative logarithm of the IC50 (pIC50) in experiment [3] and in experiment [4] were 3.03 and 2.93, respectively. In experiment [5], the T1/2 amounted to 1.05 h. For the same compound, the inhibition entry in experiment [6] and in experiment [1] was “Active” in each case.
On to `CCCCCNC(=O)[C@@H](N)Cc1ccccc1`, for which the inhibition result in [1] and in [2] was “Active” each time.
Regarding `N[C@@H](Cc1ccccc1)C(=O)NCCC(=O)O`, the inhibition entry in experiment [1] and in [2] was “Active” in each case.
With `C[C@H](NC(=O)[C@@H](N)CCCN=C(N)N)C(=O)O`, the inhibition entry in experiment [7], in experiment [8] and in experiment [9] was “Active” each time. The pIC50 in experiment [3] was 2.92.
Turning to `CC(=O)N[C@@H](Cc1ccccc1)C(N)=O`, the inhibition result in experiment [1] and in experiment [2] was “inactive” in each case.
As for `CC(N)Cc1ccccc1` (configuration not stated), in [1], the inhibition result is “Active”.
`NC(=O)[C@@H](N)Cc1ccccc1`: the inhibition result in experiment [1] was “inactive”. Also, in experiment [2], the inhibition result was “Active”.
Consider `CC(=O)N[C@@H](Cc1ccccc1)C(=O)N[C@@H](C)C(=O)O`, for which the inhibition result in [1] was “inactive”.
Regarding `NC(N)=NCCC[C@H](N)C(=O)N[C@@H](Cc1ccccc1)C(=O)O`, the inhibition entry in experiment [7] was “Active”.
In the case of `C[C@H](NC(=O)[C@H](N)CCCNC(=N)N)C(=O)O`, the inhibition entry in experiment [7] and in experiment [10] was “inactive” each time.
Regarding `N=C(N)NCCC[C@@H](N)C(=O)N[C@@H](Cc1ccccc1)C(=O)O`, the inhibition entry in experiment [7] was “inactive”.
With `N[C@@H](Cc1ccccc1)C(=O)NCCCCC(=O)O`, the inhibition result in experiment [1] and in experiment [2] was “Active” in each case.
Take `C[C@H](NC[C@@H](N)Cc1ccccc1)C(=O)O`: the inhibition entry in [1] is “inactive”.
With `CC(=O)N[C@@H](Cc1ccccc1)C(=O)O`, the inhibition result in experiment [1] and in experiment [2] was “inactive” throughout.
Regarding `COC(=O)CCCCNC(=O)[C@@H](N)Cc1ccccc1`, the inhibition result in [1] and in [2] was “Active” throughout.

For the origin of these results see ChEMBL document CHEMBL2331129, “Development and characterization of monomeric N-end rule inhibitors through in vitro model substrates” (J Med Chem, 2013).
